Source: patent US10882826B2, “Quinolinone or quinazolinone comprising antibiofilm compositions, compounds and methods and uses relating thereto” (University College Cork—National University of Ireland, priority 2015, dated 2021)

Legend:
[1] = test system: IB3 lung epithelial cells; assay: LDH release cytotoxicity, IB3-1 cells; type: cell-based; conditions: 100 μM, 16 hr, percentage of 0.1% Triton (100% cytotoxicity), MeOH 3.844
Procedure: Lactate dehydrogenase (LDH) release from IB3 lung epithelial cells was assayed as a measure of cytotoxicity using an LDH colorimetric kit (Roche) according to manufacturers' instructions. Briefly, IB3-1 cells were seeded onto 96 well plates and treated with methanol (control) and test compounds (100 μM). Following 16 hr incubation at 37° C. and 5% CO2, supernatants were removed and added to catalyst reaction mixture in a fresh plate and further incubated at 37° C. and 5% CO2 for 30 mins to allow for colour development. After this period, the plate was analysed on an ELISA plate reader at OD490 nm. Cytotoxicity was expressed as a percentage of cells treated with 0.1% (v/v) Triton (100% cytotoxicity).

[2] = test system: Pseudomonus aeruginosa; assay: Virulence of Pseudomonas aeruginosa (summary statement); type: cell-based; conditions: unlike HHQ and PQS
Procedure: The virulence of compounds B1, B2, C2, C3, C4, C5, C6, C8 and C11 towards P. aeruginosa was assessed using the following method:
P. aeruginosa strains were cultured as described above for 24 hr, with the addition of test compounds (10 μM). Cultures were centrifuged at 4000 rpm for 10 minutes and the cell free supernatant (5 ml) removed. Chloroform (3 ml) was added, and mixed by vortex. After centrifugation at 4000 rpm for 5 mins, the lower aqueous phase was transferred to 0.2 M HCl (2 ml). Samples were mixed by vortex and centrifuged at 4000 rpm for 5 mins to separate the phases. An aliquot of the top phase (1 ml) was removed and spectrophotmetrically analysed at OD570 nm. Phenazine production was calculated using the following formula: OD570 nm×2×17.072 and the units expressed in μg/ml. […]

[3] = test system: pqsA-lacZ promoter fusion; assay: Promoter fusion based expression analysis (pqsA-lacZ, Miller units); type: cell-based, P. aeruginosa; conditions: PAO1 pqsA-pqsA-lacZ strain, 100 μM, overnight; methanol control 12287
Procedure: P. aeruginosa strains, PAO1 and pqsA mutant, containing the chromosomally inserted pqsA-lacZ promoter fusion on plasmid pUC18-mini-Tn7, were sub-cultured from glycerol stocks onto LB agar plates, supplemented with Carbenicillin (200 μg/ml) and X-gal (40 μg/ml), and incubated at 37° C. overnight. Single colonies were inoculated into LB broth (20 ml), supplemented with Carbenicillin (200 μg/ml), and incubated at 37° C., shaking at 180 rpm overnight. For subsequent experiments, the OD600 nm was recorded and a starting OD600 nm of 0.02 was inoculated into fresh LB broth, supplemented with Carbenicillin (200 μg/ml) and incubated at 37° C., shaking at 180 rpm.
Promoter fusion analyses were performed in a 96-well format. Briefly, overnight cultures of wild-type PAO1 pqsA-lacZ (pLP0996) and mutant strain PAO1 pqsA^− pqsA-LacZ were diluted to OD600 nm=0.02 in LB. Test compounds at 100 μM final concentration were added, mixed, aliquoted into 96 well plates and incubated overnight at 37° C. with shaking. The next day, OD600 nm values were recorded in a plate reader. Aliquots of cells (0.02 ml) were permeabilised [100 mM dibasic sodium phosphate (Na2HPO4), 20 mM KCl, 2 mM MgSO4, 0.8 mg/mL CTAB (hexadecyltrimethylammonium bromide), 0.4 mg/mL sodium deoxycholate, 5.4 μL/mL beta-mercaptoethanol] and added to substrate solution [60 mM Na2HPO4, 40 mM NaH2PO4, 1 mg/mL o-nitrophenyl-β-D-Galactoside (ONPG), 2.7 μL/mL β-mercaptoethanol]. The kinetics of colour development was monitored and the reactions were stopped using 1M NaCO3. OD420 nm were recorded as above. Miller units were calculated using the following equation; 1000×[OD420 nm/(OD600 nm)×0.02 ml×reaction time (mins)].
The phenazine production levels and Miller units in the PAO1 pqsA-pqsA-lacZ strain are detailed in table 5.
The virulence of compounds B2, C13 and C15 towards P. aeruginosa was assessed using an analogous method.

[4] = test system: C. albicans strain SC5314 biofilm; assay: XTT metabolic assay of C. albicans biofilm; type: cell-based, Candida albicans; conditions: for Absorbance at 492 nm, Mean (XTT) / XTT result, Mean (MeOH control = 1): C. albicans biofilm; for Absorbance at 492 nm, Mean (XTT): test compound 100 μM, 24 hr, MeOH control 0.647, untreated 0.851; for effectiveness against fungal biofilms formed by Candida albicans (in words): summary statement
Procedure: C. albicans strain SC5314 was sub-cultured from 15% (v/v) glycerol stocks at −80° C. onto Yeast Peptone Dextrose (YPD) medium [1% (w/v) yeast extract, 2% (w/v) peptone and 2% (w/v) dextrose] and incubated at 30° C. overnight.
The test compounds in desiccated form were re-suspended in Methanol to create a 10 mM stock. […]
The ability of some of the compounds detailed in example 1 to disrupt Candida albicans was tested using Confocal Scanning Laser Microscopy and an XTT Metabolic Assay. The XTT assay is a commonly used quantitative method assessing Candida biofilm mass and growth often in response to novel drug therapies.
C. albicans biofilm formation was carried out in 96 well plates by a method of the prior art. Briefly, C. albicans was inoculated into Yeast Nitrogen Base [10% (w/v)] and glucose/maltose [10% (w/v)] and incubated overnight at 30° C. Seeding densities for all subsequent experiments (N=3) were OD600=0.05. Cells were grown in Yeast Nitrogen Base supplemented with 1 M Phosphate buffer and acetyl-D-glucosamine (YNB-NP) along with appropriate volumes of test compound to provide the desired concentration. Cells were cultured in 96 well plates for 1 hr at 37° C. to facilitate yeast attachment. After this incubation, the supernatants were aspirated, the wells washed twice with YNB-NP media, and fresh media with the same concentration of test compound added to the appropriate wells. The plate was incubated for 24 hr at 37° C. The next day, the cultures were aspirated and the wells washed once with YNB-NP media.
C. albicans biofilm quantification was carried out in 96 well plates using a semi-quantitative Tetrazolium salt, 2,3-bis-(2-methoxy-4-nitro-5-sulfophenyl)-2H tetrazolium-5-carboxanilide inner salt (XTT) reduction assay (Hawser, Tunney et al, Antimicrob Agents Chemother. 2004 May; 48(5):1879-81). XTT (0.01 g) was dissolved in sterile water (20 ml) and filter sterilized. 10 μl of Menadione dissolved in Acetone was added to the XTT solution, just before use. The XTT-Menadione Solution (100 μl) was added to each well. The plate was incubated in the dark at 37° C. for up to 2 hr to allow for colour development. The OD492 nm was recorded for each well. Experiments were repeated at least three times, with at least eight technical replicates.
Experiments were first carried out using the test compound at concentration of 100 μM.

Row | SMILES | % Cytotoxicity, Mean (LDH release) [1] | effect on virulence of Pseudomonus aeruginosa (in words) [2] | Miller Units, Mean [3] | Absorbance at 492 nm, Mean (XTT) [4] | effectiveness against fungal biofilms formed by Candida albicans (in words) [4] | XTT result, Mean (MeOH control = 1) ([4]; 10 μM) | XTT result, Mean (MeOH control = 1) ([4]; 50 μM) | XTT result, Mean (MeOH control = 1) ([4]; 100 μM)
1 | CCCCCCCc1cc(=O)c2cccc(Cl)c2[nH]1 [Compound C5] | 31.04% | do not increase the virulence | 11940 Miller Units | 0.242 | effective | – | – | –
2 | CCCCCCCc1nc2ccccc2c(=O)n1N [Compound C2] | 28.94% | do not increase the virulence | 16027 Miller Units | 0.178 | effective | 0.68 | 0.38 | 0.25
3 | CCCCCCCc1cc(=O)c2cc(Cl)ccc2[nH]1 [Compound C4] | 15.46% | do not increase the virulence | 35489 Miller Units | 0.302 | effective | 0.86 | 0.67 | 0.58
